Biological target: Recombinant Human Poly(ADP-Ribose) Polymerase (PARP), PARP-1 (Homo sapiens (Human), UniProt P09874)
Settings: read-out: PARP-1 (Ki); Table 1; text calls the values EC50s

Recombinant Human Poly(ADP-Ribose) Polymerase (PARP), PARP-1, sequence (P09874 whole entry): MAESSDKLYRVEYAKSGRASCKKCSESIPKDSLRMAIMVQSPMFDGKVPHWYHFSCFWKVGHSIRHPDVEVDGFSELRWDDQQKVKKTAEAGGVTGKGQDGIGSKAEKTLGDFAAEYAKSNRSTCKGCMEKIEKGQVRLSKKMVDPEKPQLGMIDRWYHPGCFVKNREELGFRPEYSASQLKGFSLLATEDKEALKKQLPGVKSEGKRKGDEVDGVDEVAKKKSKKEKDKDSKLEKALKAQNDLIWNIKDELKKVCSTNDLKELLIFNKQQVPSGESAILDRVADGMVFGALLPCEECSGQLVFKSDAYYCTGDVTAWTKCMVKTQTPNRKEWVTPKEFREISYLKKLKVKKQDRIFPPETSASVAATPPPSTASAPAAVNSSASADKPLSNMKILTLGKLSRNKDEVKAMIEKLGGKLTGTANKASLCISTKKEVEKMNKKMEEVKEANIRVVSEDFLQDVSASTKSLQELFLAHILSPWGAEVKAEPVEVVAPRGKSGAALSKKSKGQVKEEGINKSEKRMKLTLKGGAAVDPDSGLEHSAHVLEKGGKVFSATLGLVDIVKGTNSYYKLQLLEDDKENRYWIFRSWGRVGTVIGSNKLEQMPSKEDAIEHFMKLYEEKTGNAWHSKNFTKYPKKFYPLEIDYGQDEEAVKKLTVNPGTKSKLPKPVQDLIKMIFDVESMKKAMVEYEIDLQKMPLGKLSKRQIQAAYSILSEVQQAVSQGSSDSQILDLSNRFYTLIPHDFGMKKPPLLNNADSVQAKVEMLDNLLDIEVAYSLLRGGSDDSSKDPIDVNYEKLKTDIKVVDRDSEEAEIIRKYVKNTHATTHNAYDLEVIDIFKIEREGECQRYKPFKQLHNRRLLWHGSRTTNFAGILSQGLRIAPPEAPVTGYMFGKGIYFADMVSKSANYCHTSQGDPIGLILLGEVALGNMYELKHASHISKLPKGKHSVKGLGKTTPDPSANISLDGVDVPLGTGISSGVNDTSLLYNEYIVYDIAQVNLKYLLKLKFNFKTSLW

| Ki [nM] | SMILES |
| --- | --- |
| 6 | O=C(CCOc1ccccc1)Nc1cccc(Cc2n[nH]c(=O)c3c2CCCC3)c1 [Example 153, N-(3-((4-oxo-3,4,5,6,7,8-hexahydrophthalazin-1-yl)methyl)phenyl)-3-phenoxypropanamide] |
| 166 | O=C(Nc1cccc(Cc2n[nH]c(=O)c3c2CCCC3)c1)c1cc(F)ccc1F [Example 183, 2,5-difluoro-N-(3-((4-oxo-3,4,5,6,7,8-hexahydrophthalazin-1-yl)methyl)phenyl)benzamide] |
| 0.9 | CN(C)C(=O)N1CCN(C(=O)c2cc(Cc3n[nH]c(=O)c4c3CCCC4)ccc2F)CC1 [Example 494, 4-{2-fluoro-5-[(4-oxo-3,4,5,6,7,8-hexahydrophthalazin-1-yl)methyl]benzoyl}-N,N-dimethylpiperazine-1-carboxamide] |
| 223 | O=C(CCC(=O)c1ccc(Oc2ccccc2)cc1)Nc1cccc(CCc2n[nH]c(=O)c3c2CCCC3)c1 [Example 321, 4-oxo-N-(3-(2-(4-oxo-3,4,5,6,7,8-hexahydrophthalazin-1-yl)ethyl)phenyl)-4-(4-phenoxyphenyl)butanamide] |
| 154 | O=C(Nc1cccc(Cc2n[nH]c(=O)c3c2CCCC3)c1)c1cc(F)cc(F)c1 [Example 184, 3,5-difluoro-N-(3-((4-oxo-3,4,5,6,7,8-hexahydrophthalazin-1-yl)methyl)phenyl)benzamide] |
| 554 | O=C(Nc1cccc(Cc2n[nH]c(=O)c3c2CCCC3)c1)c1ccccc1Cc1ccccc1 [Example 239, 2-benzyl-N-(3-((4-oxo-3,4,5,6,7,8-hexahydrophthalazin-1-yl)methyl)phenyl)benzamide] |
| 120 | O=C(c1cccc(Cc2n[nH]c(=O)c3c2CCCC3)c1)N(Cc1ccccc1)Cc1ccccc1 [Example 423, N,N-dibenzyl-3-((4-oxo-3,4,5,6,7,8-hexahydrophthalazin-1-yl)methyl)benzamide] |
| 13 | O=C(c1cc(Cc2n[nH]c(=O)c3c2CCCC3)ccc1F)N1CCN(c2ccccc2F)CC1 [Example 523, 4-(4-fluoro-3-{[4-(2-fluorophenyl)piperazin-1-yl]carbonyl}benzyl)-5,6,7,8-tetrahydrophthalazin-1(2H)-one] |
| 776 | N#Cc1ccc(S(=O)(=O)Nc2cccc(Cc3n[nH]c(=O)c4c3CCCC4)c2)cc1 [Example 121, 4-cyano-N-(3-((4-oxo-3,4,5,6,7,8-hexahydrophthalazin-1-yl)methyl)phenyl)benzenesulfonamide] |
| 32 | CN(C)CCCNC(=O)c1cccc(Cc2n[nH]c(=O)c3c2CCCC3)c1 [Example 314, N-(3-(dimethylamino)propyl)-3-((4-oxo-3,4,5,6,7,8-hexahydrophthalazin-1-yl)methyl)benzamide] |
| 132 | O=C(Nc1ccc(N2CCOCC2)cc1)c1cccc(Cc2n[nH]c(=O)c3c2CCCC3)c1 [Example 363, N-(4-morpholin-4-ylphenyl)-3-((4-oxo-3,4,5,6,7,8-hexahydrophthalazin-1-yl)methyl)benzamide] |
| 173 | Cc1ccccc1CCNC(=O)c1cccc(Cc2n[nH]c(=O)c3c2CCCC3)c1 [Example 376, N-(2-(2-methylphenyl)ethyl)-3-((4-oxo-3,4,5,6,7,8-hexahydrophthalazin-1-yl)methyl)benzamide] |
| 3 | O=C(c1cc(Cc2n[nH]c(=O)c3c2CCCC3)ccc1F)N1CCN(CCOc2ccccc2)CC1 [Example 577, 4-(4-fluoro-3-{[4-(2-phenoxyethyl)piperazin-1-yl]carbonyl}benzyl)-5,6,7,8-tetrahydrophthalazin-1(2H)-one] |
| 58 | CC(=O)Nc1cccc(-c2cccc(C(C)c3n[nH]c(=O)c4c3CCCC4)c2)c1 (stereo not shown) [Example 286, N-(3′-(1-(4-oxo-3,4,5,6,7,8-hexahydrophthalazin-1-yl)ethyl)-1,1′-biphenyl-3-yl)acetamide] |
| 85 | O=C(Cc1ccccn1)Nc1cccc(Cc2n[nH]c(=O)c3c2CCCC3)c1 [Example 215, N-(3-((4-oxo-3,4,5,6,7,8-hexahydrophthalazin-1-yl)methyl)phenyl)-2-pyridin-2-ylacetamide] |
| 943 | CC(Cc1n[nH]c(=O)c2c1CCCC2)c1ccc(F)c(-c2cccc(C(=O)N3CCCC3)c2)c1 (stereo not shown) [Example 276, 4-(2-(6-fluoro-3′-(pyrrolidin-1-ylcarbonyl)-1,1′-biphenyl-3-yl)propyl)-5,6,7,8-tetrahydrophthalazin-1(2H)-one] |
| 6 | O=C(c1cccc(Cc2n[nH]c(=O)c3c2CCCC3)c1)N1CCC(c2ccccc2)CC1 [Example 61, 4-(3-((4-phenylpiperidin-1-yl)carbonyl)benzyl)-5,6,7,8-tetrahydrophthalazin-1(2H)-one] |
| 120 | COc1ccc(Nc2ccc(NC(=O)c3cccc(Cc4n[nH]c(=O)c5c4CCCC5)c3)cc2)cc1 [Example 365, N-(4-((4-methoxyphenyl)amino)phenyl)-3-((4-oxo-3,4,5,6,7,8-hexahydrophthalazin-1-yl)methyl)benzamide] |
| 13 | O=C(NCCN1CCCC1)c1cccc(Cc2n[nH]c(=O)c3c2CCCC3)c1 [Example 52, 3-((4-oxo-3,4,5,6,7,8-hexahydrophthalazin-1-yl)methyl)-N-(2-pyrrolidin-1-ylethyl)benzamide] |
| 57 | CC(=O)Nc1ccc(C(=O)Nc2cccc(Cc3n[nH]c(=O)c4c3CCCC4)c2)cc1 [Example 234, 4-(acetylamino)-N-(3-((4-oxo-3,4,5,6,7,8-hexahydrophthalazin-1-yl)methyl)phenyl)benzamide] |
| 191 | CCCNC(=O)Nc1cc(Cc2n[nH]c(=O)c3c2CCCC3)ccc1F [Example 539, N-{2-fluoro-5-[(4-oxo-3,4,5,6,7,8-hexahydrophthalazin-1-yl)methyl]phenyl}-N′-propylurea] |
| 123 | CCNC(=O)c1cccc(Cc2n[nH]c(=O)c3c2CCCC3)n1 [Example 81, N-ethyl-6-((4-oxo-3,4,5,6,7,8-hexahydrophthalazin-1-yl)methyl)pyridine-2-carboxamide] |

Further lines, the compound ahead of its results:

| SMILES | Ki [nM] |
| --- | --- |
| O=C(NC1CCN(C(=O)[C@@H]2CSCN2)CC1)c1cc(Cc2n[nH]c(=O)c3c2NCCC3)ccc1F [Example 729, 2-fluoro-5-[(5-oxo-1,2,3,4,5,6-hexahydropyrido[2,3-d]pyridazin-8-yl)methyl]-N-{1-[(4R)-1,3-thiazolidin-4-ylcarbonyl]piperidin-4-yl}benzamide] | 48 |
| CN1CCN(C2CCN(C(=O)c3cc(Cc4n[nH]c(=O)c5c4NCCC5)ccc3F)CC2)CC1 [Example 644] | 3 |
| Cc1cncc(N2CCN(C(=O)c3cc(Cc4n[nH]c(=O)c5c4NCCC5)ccc3F)CC2)n1 [Example 573, 8-(4-fluoro-3-{[4-(6-methylpyrazin-2-yl)piperazin-1-yl]carbonyl}benzyl)-2,3,4,6-tetrahydropyrido[2,3-d]pyridazin-5(1H)-one] | 0.9 |
| CN1CCN(CCNC(=O)c2cccc(Cc3n[nH]c(=O)c4c3CCCC4)c2)CC1 [Example 59, N-(2-(4-methylpiperazin-1-yl)ethyl)-3-((4-oxo-3,4,5,6,7,8-hexahydrophthalazin-1-yl)methyl)benzamide] | 24 |
| O=C(c1cc(Cc2n[nH]c(=O)c3c2NCCC3)ccc1F)N1CCN(c2cncnc2)CC1 [Example 696, 8-{4-fluoro-3-[(4-pyrimidin-5-ylpiperazin-1-yl)carbonyl]benzyl}-2,3,4,6-tetrahydropyrido[2,3-d]pyridazin-5(1H)-one] | 2.5 |
| O=C(CCCC(=O)Nc1cc(Cc2n[nH]c(=O)c3c2CCCC3)ccc1F)Nc1ccccc1 [Example 457, N-(2-fluoro-5-((4-oxo-3,4,5,6,7,8-hexahydrophthalazin-1-yl)methyl)phenyl)-N′-phenylpentanediamide] | 0.7 |
| O=C(NC1CCC(O)CC1)c1cc(Cc2n[nH]c(=O)c3c2NCCC3)ccc1F (stereo not shown) [Example 709, 2-fluoro-N-(4-hydroxycyclohexyl)-5-[(5-oxo-1,2,3,4,5,6-hexahydropyrido[2,3-d]pyridazin-8-yl)methyl]benzamide] | 53 |
| O=C(CN1CCN(C(=O)c2cc(Cc3n[nH]c(=O)c4c3NCCC4)ccc2F)CC1)N1CCCC1 [Example 532, 8-(4-fluoro-3-{[4-(2-oxo-2-pyrrolidin-1-ylethyl)piperazin-1-yl]carbonyl}benzyl)-2,3,4,6-tetrahydropyrido[2,3-d]pyridazin-5(1H)-one] | 4 |
| O=C(c1cc(Cc2n[nH]c(=O)c3c2NCCC3)ccc1F)N1CCN(C(=O)C2CCCO2)CC1 (stereo not shown) [Example 569, 8-(4-fluoro-3-{[4-(tetrahydrofuran-2-ylcarbonyl)piperazin-1-yl]carbonyl}benzyl)-2,3,4,6-tetrahydropyrido[2,3-d]pyridazin-5(1H)-one] | 1.2 |
| O=C(c1cscn1)N1CCCN(C(=O)c2cc(Cc3n[nH]c(=O)c4c3NCCC4)ccc2F)CC1 [Example 703, 8-(4-fluoro-3-{[4-(1,3-thiazol-4-ylcarbonyl)-1,4-diazepan-1-yl]carbonyl}benzyl)-2,3,4,6-tetrahydropyrido[2,3-d]pyridazin-5(1H)-one] | 2.3 |
| CCN(CC)C(=O)C1CCCN(C(=O)c2cc(Cc3n[nH]c(=O)c4c3CCCC4)ccc2F)C1 (stereo not shown) [Example 505, N,N-diethyl-1-{2-fluoro-5-[(4-oxo-3,4,5,6,7,8-hexahydrophthalazin-1-yl)methyl]benzoyl}piperidine-3-carboxamide] | 6 |
| CN(C(=O)c1cc(Cc2n[nH]c(=O)c3c2NCCC3)ccc1F)C1CCN(C(=O)c2ccncc2)CC1 [Example 712, 2-fluoro-N-(1-isonicotinoylpiperidin-4-yl)-N-methyl-5-[(5-oxo-1,2,3,4,5,6-hexahydropyrido[2,3-d]pyridazin-8-yl)methyl]benzamide] | 4 |
| O=C(O)c1cc(Cc2n[nH]c(=O)c3c2NCCC3)ccc1F [Example 468, 2-fluoro-5-((5-oxo-1,2,3,4,5,6-hexahydropyrido(2,3-d)pyridazin-8-yl)methyl)benzoic acid] | 249 |
| CN(C(=O)c1cc(Cc2n[nH]c(=O)c3c2NCCC3)ccc1F)C1CCN(C(=O)c2ccccn2)CC1 [Example 721, 2-fluoro-N-methyl-5-[(5-oxo-1,2,3,4,5,6-hexahydropyrido[2,3-d]pyridazin-8-yl)methyl]-N-[1-(pyridin-2-ylcarbonyl)piperidin-4-yl]benzamide] | 3 |
| O=C(c1ccc(Cl)cn1)N1CCN(C(=O)c2cc(Cc3n[nH]c(=O)c4c3NCCC4)ccc2F)CC1 [Example 641] | 1.3 |

From patent US9283222B2 (priority 2006, dated 2016)
